Experimental data as given in patent publication US9834525B2, “Inhibitors of paxillin function and related compositions and methods” (UNIVERSITY OF TENNESSEE RESEARCH FOUNDATION, priority 2015, dated 2017).
Entries after “also recorded” stand apart in the source; their conditions may differ.

Key:
[1] = target: T1, serotonin receptor 5-HT2B (Homo sapiens, UniProt P41595); experiment: Off-target counter screening, ExpresS Profile; format: binding; conditions: 10 μM
T1 construct: purchased Eurofins, Cerep Panlabs ExpresS Profile
Procedure: (§1) Counter-screen assays to determine “off-target” effects are conducted at an early stage to mitigate toxicological risk of new chemical entities. Compound (II-4) (10 μM) counter screening was conducted against a wide variety of target receptors, enzymes, and ion channels using a serum-free cell-based assay, ExpresS Profile (Eurofins, Cerep Panlabs). Inhibition >50% is considered a “positive” interaction.

[2] = target: T2, melatonin-1 receptor (MT-1) (Homo sapiens, UniProt P48039); experiment: Off-target counter screening, ExpresS Profile; format: binding; conditions: 10 μM
T2 construct: purchased Eurofins, Cerep Panlabs ExpresS Profile
Procedure: as §1

[3] = Microsomal stability, pooled human liver microsomes; format: in vitro ADME
Procedure: (§2) Microsomal stability of compound (II-4) (1 μM) was assessed in pooled liver microsomes (human, mouse, and rat) (FIG. 7). Briefly, compound (II-4) was incubated in duplicate with microsomes at 37° C. Reactions contained microsomal protein in 100 mM potassium phosphate, 2 mM NADPH, 3 mM MgCl2, pH 7.4. NADPH was omitted to detect NADPH-free degradation. At 60 minutes, the reaction was stopped by adding ice-cold methanol containing internal standard. Samples were centrifuged to remove precipitated protein, and the supernatants were analyzed by LC/MS/MS to quantitate the remaining parent.
as §2, with “23).” for “7).”, “min,” for “minutes,”, “(+” for “containing”, “standard).” for “standard.”

[4] = system: retinal endothelial cells (REC); experiment: VEGF-induced REC proliferation, WST-1 metabolic assay; format: cell-based, human
Procedure: To investigate the potential of compound (II-4) affecting the proliferative capacity of RECs treated with VEGF, proliferation was measured using the metabolic assay based on the tetrazolium salt, WST-1. […] To rule out the possibility that this observation was related to cytotoxicity, RECs were incubated with a high concentration of compound (II-4) (1 μM) for 24 hours. Cells were harvested and apoptosis measured with Annexin-V/Propidium Iodide (PI) staining and analyzed using flow cytometry.
FIG. 18: REC Proliferation and Flow cytometry analysis of apoptosis in REC. A) VEGF-induced cellular proliferation was assessed using the WST-1 metabolic assay. […] (*P<0.0001). Nuclei were stained with DRAQ5 and imaged to show trend of decreasing proliferation. B) Apoptosis was measured using Annexin V/PI staining Compound (II-4) (1 μM) appears to be non-cytotoxic to retinal endothelial cells after 24 hour incubation (n≈10,000 cells).
FIG. 21: REC Proliferation. […] (*, # P<0.001; Mean±SD, N=8/group).

UM tumor cells = experiment: Phalloidin (F-actin) analysis by flow cytometry in UM cells; format: cell-based, human; conditions: treatment for 24 hrs
Procedure: Retinal endothelial cells (REC) and UM-OMM 2.5 cells were harvested, washed and counted. 1.0×10^6 cells were fixed for 1 hr at 4° C. and permeabilized with the Intracellular Fixation and Permeabilization Buffer Kit (eBiosciences, San Diego, Calif.). Cells were washed followed by Alexa-Fluor 647 Phalloidin (MOLECULAR PROBES, Life Technologies, Carlsbad, Calif.) labeling using 1 U/μL. Cells were washed and analyzed using BD LSR II followed by analysis using FlowJo xV10.0.6 software.
Next, it was investigated if reduced numbers were a consequence of a reduction in UM cells proliferation. Cell cultures in the presence or absence of compound (II-4) were analyzed by follow cytometry for cytoskeletal fragmentation and proliferation. Uncontrolled cytoskeletal remodeling and cell proliferation are considered hallmarks of tumor growth and metastasis. […]
FIG. 15: The paxillin inhibitor Compound (II-4) selectively affects cellular proliferation of primary UM cells that become metastatic. […] Unlabeled cells were used to control fluorescence. […] B. Quantitation of experiment +/−SD including primary UM that becomes metastatic (Mel 270), metastatic (OMM 2.1) and primary (92.1) UM cells. *P=0.0007 and **P=0.0005. […] Quantitation of VLA-4 protein levels +/−SD from n=3. […]

CYP2D6 = target: T3, CYP2D6 (Homo sapiens, UniProt P10635); experiment: CYP-450 interaction study in pooled human liver microsomes, CYP2D6; format: in vitro ADME; conditions: 1 μM
T3 construct: from tissue; host or cells: pooled human liver microsomes
Procedure: CYP-450 interaction studies were conducted in pooled human liver microsomes (FIG. 8). CYP-450 inhibition (%) by compound (II-4) (1 μM) was compared to control inhibitors (1 μM) for the most common CYP-450 isoforms, CYP3A4, CYP2C9, CYP2D6, CYP2C19, and CYP1A2.
CYP-450 interaction studies were conducted in pooled human liver microsomes (FIG. 24). CYP-450 inhibition (%) by compound (II-4) (1 μM) was compared to control inhibitors (1 μM) for the most common CYP-450 isoforms, 3A4, 2C9, 2D6, 2C19, and 1A2.

T3 sequence (P10635 whole entry): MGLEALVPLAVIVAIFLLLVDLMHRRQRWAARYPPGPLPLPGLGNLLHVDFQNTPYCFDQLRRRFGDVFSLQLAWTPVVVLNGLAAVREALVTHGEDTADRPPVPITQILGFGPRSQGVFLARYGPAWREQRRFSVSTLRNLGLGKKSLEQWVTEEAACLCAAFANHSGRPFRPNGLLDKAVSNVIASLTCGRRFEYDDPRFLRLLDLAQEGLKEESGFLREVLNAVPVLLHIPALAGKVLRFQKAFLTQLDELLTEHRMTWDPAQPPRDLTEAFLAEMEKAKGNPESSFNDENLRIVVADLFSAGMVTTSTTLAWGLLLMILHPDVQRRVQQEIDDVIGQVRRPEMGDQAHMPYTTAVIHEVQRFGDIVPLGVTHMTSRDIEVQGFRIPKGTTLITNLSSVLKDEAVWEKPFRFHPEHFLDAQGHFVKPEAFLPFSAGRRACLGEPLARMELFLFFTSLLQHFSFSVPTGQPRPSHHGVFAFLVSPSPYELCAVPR
T1 sequence (P41595 whole entry): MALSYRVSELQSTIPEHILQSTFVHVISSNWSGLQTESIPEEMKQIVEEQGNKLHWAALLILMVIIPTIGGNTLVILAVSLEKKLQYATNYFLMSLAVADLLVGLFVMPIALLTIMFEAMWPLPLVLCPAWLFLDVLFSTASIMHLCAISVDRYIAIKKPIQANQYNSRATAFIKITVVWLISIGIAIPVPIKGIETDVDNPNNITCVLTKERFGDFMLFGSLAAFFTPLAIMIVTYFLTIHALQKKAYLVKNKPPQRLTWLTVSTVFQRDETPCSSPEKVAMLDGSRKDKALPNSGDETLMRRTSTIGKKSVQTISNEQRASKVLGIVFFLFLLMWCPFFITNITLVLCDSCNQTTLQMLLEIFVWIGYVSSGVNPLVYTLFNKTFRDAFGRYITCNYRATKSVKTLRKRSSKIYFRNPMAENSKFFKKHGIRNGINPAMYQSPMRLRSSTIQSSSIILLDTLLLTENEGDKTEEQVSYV
T2 sequence (P48039 whole entry): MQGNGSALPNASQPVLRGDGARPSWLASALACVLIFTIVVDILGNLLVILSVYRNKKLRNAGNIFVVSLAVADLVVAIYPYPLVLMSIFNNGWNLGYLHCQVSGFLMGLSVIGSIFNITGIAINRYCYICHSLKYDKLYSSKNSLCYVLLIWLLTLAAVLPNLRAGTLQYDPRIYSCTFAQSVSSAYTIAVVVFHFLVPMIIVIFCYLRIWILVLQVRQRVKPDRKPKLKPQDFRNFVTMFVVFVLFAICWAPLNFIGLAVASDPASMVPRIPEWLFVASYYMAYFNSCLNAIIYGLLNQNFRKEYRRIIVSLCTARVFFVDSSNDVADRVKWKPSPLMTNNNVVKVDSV

off-target interaction, 5-HT2B (inhibition >50% considered positive) [1]: possible binding targets | off-target interaction, MT-1 (inhibition >50% considered positive) [2]: possible binding targets | susceptibility to P-450 interaction in human microsomes compared to rodent ([3]; human vs rodent microsomes): less susceptible | microsomal stability (metabolism by cytochrome P-450 enzymes) ([3]; human, 1 μM, 37° C., 60 min): rapidly metabolized
Structure (SMILES): COc1cc(C2OC(=O)Nc3c2ccc2ccccc32)cc(OC)c1OC (centres unmarked) [compound II-4]
VEGF-induced REC proliferation (FIG. 21) ([4]; Compound (II-4) (500 nM), LY294002 (1004), SU6656 (104), U0126 (104) [sic]): inhibited | VEGF-induced cellular proliferation (WST-1) ([4]; increasing concentrations of compound (II-4)): significant decrease; also recorded: significantly reduces cellular proliferation | actin remodeling (intracellular phalloidin, F-actin) (UM tumor cells): no difference in actin remodeling | CYP-450 inhibition, CYP2D6 (CYP2D6): lack of significant inhibition; also recorded: lacks significant inhibition
